From the NIST ThermoML archive (doi:10.1016/j.jct.2012.03.025)

Assay: mn = molality of the nth substance listed, in mol/kg
Settings: 101 kPa, Liquid; for speed of sound: Sing-around technique in a fixed-path interferometer; for mass density: Vibrating tube method

CCCCn1cc[n+](C)c1.[Cl-] [1-butyl-3-methylimidazolium chloride] + O
Settings | mass density, 288.15 K [kg/m3] | mass density, 293.15 K [kg/m3] | mass density, 298.15 K [kg/m3] | mass density, 303.15 K [kg/m3] | mass density, 308.15 K [kg/m3] | speed of sound, 288.15 K [m/s] | speed of sound, 293.15 K [m/s] | speed of sound, 298.15 K [m/s] | speed of sound, 303.15 K [m/s] | speed of sound, 308.15 K [m/s]
m1 = 0.0519 | 999.802 | 998.874 | 997.684 | 996.264 | 994.611 | 1474.6 | 1489.9 | 1503.6 | 1515.5 | 1525.8
m1 = 0.1011 | 1000.45 | 999.477 | 998.265 | 996.836 | 995.146 | 1482 | 1496.7 | 1509.9 | 1521.4 | 1531.3
m1 = 0.1548 | 1001.14 | 1000.16 | 998.918 | 997.452 | 995.754 | 1489.8 | 1504 | 1516.6 | 1527.7 | 1537.2
m1 = 0.2011 | 1001.77 | 1000.76 | 999.494 | 998.007 | 996.292 | 1496.5 | 1510.1 | 1522.3 | 1533 | 1542.3
m1 = 0.2583 | 1002.56 | 1001.52 | 1000.2 | 998.699 | 996.957 | 1504.3 | 1517.8 | 1529.2 | 1539.7 | 1548.4
m1 = 0.311 | 1003.25 | 1002.18 | 1000.86 | 999.317 | 997.577 | 1511.4 | 1524.5 | 1535.6 | 1545.6 | 1553.9
m1 = 0.3619 | 1003.98 | 1002.88 | 1001.53 | 999.989 | 998.169 | 1518.1 | 1531 | 1541.4 | 1551.3 | 1559.3
m1 = 0.4064 | 1004.59 | 1003.46 | 1002.09 | 1000.54 | 998.737 | 1524 | 1536.4 | 1546.8 | 1556.2 | 1563.9
m1 = 0.451 | 1005.23 | 1004.07 | 1002.67 | 1001.08 | 999.294 | 1530 | 1542.1 | 1551.6 | 1561 | 1568.4
m1 = 0.5069 | 1005.99 | 1004.8 | 1003.4 | 1001.79 | 999.991 | 1536.9 | 1549 | 1557.9 | 1567.1 | 1574

CCCCn1cc[n+](C)c1.[I-] [1-butyl-3-methylimidazolium iodide] + O
Settings | mass density, 288.15 K [kg/m3] | mass density, 293.15 K [kg/m3] | mass density, 298.15 K [kg/m3] | mass density, 303.15 K [kg/m3] | mass density, 308.15 K [kg/m3] | speed of sound, 288.15 K [m/s] | speed of sound, 293.15 K [m/s] | speed of sound, 298.15 K [m/s] | speed of sound, 303.15 K [m/s] | speed of sound, 308.15 K [m/s]
m1 = 0.0514 | 1003.51 | 1002.58 | 1001.37 | 999.906 | 998.257 | 1471.2 | 1486.3 | 1500 | 1511.9 | 1522.2
m1 = 0.1017 | 1007.71 | 1006.74 | 1005.46 | 1003.96 | 1002.28 | 1475.6 | 1489.8 | 1503 | 1514.5 | 1524.4
m1 = 0.1497 | 1011.65 | 1010.64 | 1009.32 | 1007.76 | 1006.08 | 1479.5 | 1493.2 | 1505.8 | 1516.8 | 1526.2
m1 = 0.1995 | 1015.69 | 1014.61 | 1013.26 | 1011.7 | 1009.95 | 1483.3 | 1496.4 | 1508.5 | 1519.1 | 1528.1
m1 = 0.2522 | 1019.87 | 1018.75 | 1017.37 | 1015.77 | 1013.98 | 1487.2 | 1499.6 | 1511.4 | 1521.6 | 1530.1
m1 = 0.3025 | 1023.82 | 1022.63 | 1021.27 | 1019.6 | 1017.78 | 1491 | 1502.7 | 1514 | 1523.7 | 1531.9
m1 = 0.3477 | 1027.3 | 1026.08 | 1024.71 | 1023 | 1021.14 | 1494.2 | 1505.2 | 1516.1 | 1525.5 | 1533
m1 = 0.4036 | 1031.57 | 1030.23 | 1028.85 | 1027.14 | 1025.23 | 1498 | 1508.5 | 1519 | 1527.7 | 1534.9
m1 = 0.4508 | 1035.08 | 1033.71 | 1032.38 | 1030.58 | 1028.63 | 1501.1 | 1511.1 | 1521.1 | 1529.7 | 1536.2
m1 = 0.5032 | 1038.95 | 1037.5 | 1036.15 | 1034.41 | 1032.4 | 1504.9 | 1514.1 | 1523.7 | 1531.8 | 1537.6
